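Test compounds were applied to cells in 96-well plates for 48 hours at 5 doses. GI50 = concentration required for 50% inhibition of growth.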 Activity calls are given as the source filed them. Rule as the data show it: active = GI50 up to about 1.1 µM and inactive = higher.
Columns and labels:
Test in all cases: NCI anticancer screen, dose series, 48 h
SNB-19 = tested on: SNB-19
MOLT-4 = tested on: MOLT-4
Malme-3M = tested on: Malme-3M
MDA-MB-231 = tested on: MDA-MB-231
HOP-62 = tested on: HOP-62
MCF7 = tested on: MCF7
NCI-H226 = tested on: NCI-H226
T47D = tested on: T47D
SW-620 = tested on: SW-620
NCI/ADR-RES = tested on: NCI/ADR-RES
UACC-257 = tested on: UACC-257
A498 = tested on: A498
MDA-N = tested on: MDA-N
BT-549 = tested on: BT-549
COLO 205 = tested on: COLO 205
SK-MEL-28 = tested on: SK-MEL-28
LOX IMVI = tested on: LOX IMVI
SR = tested on: SR
ACHN = tested on: ACHN

Measured: GI50

CC(C)CCNC(=O)C(CC(C)C)NC(=O)[C@H]1O[C@@H]1C(=O)O (some centres undefined)
inactive: SNB-19 > 100 µM | MOLT-4 > 100 µM | Malme-3M > 100 µM | MDA-MB-231 > 100 µM | HOP-62 > 100 µM | MCF7 > 100 µM | NCI-H226 > 100 µM | T47D > 100 µM | SW-620 > 100 µM | NCI/ADR-RES > 100 µM | UACC-257 > 100 µM | A498 > 100 µM | MDA-N > 100 µM | BT-549 > 100 µM | COLO 205 > 100 µM | SK-MEL-28 > 100 µM

Cc1ccc(-c2nc(-c3cnccn3)n(C3OC(CO)C(O)C(O)C3O)n2)cc1 (centres undefined)
inactive: SNB-19 > 100 µM | MOLT-4 > 100 µM | MDA-MB-231 > 100 µM | LOX IMVI > 100 µM | HOP-62 > 100 µM | SR > 100 µM | MCF7 > 100 µM | T47D > 100 µM | SW-620 > 100 µM | NCI/ADR-RES > 100 µM | UACC-257 > 100 µM | MDA-N > 100 µM | BT-549 > 100 µM | COLO 205 > 100 µM | SK-MEL-28 > 100 µM

CCCCn1c(N)c(-c2nc3ccccc3o2)sc1=S
inactive: SNB-19 41.3 µM | MOLT-4 43 µM | Malme-3M 16.3 µM | MDA-MB-231 16.8 µM | HOP-62 21.5 µM | SR 17.7 µM | ACHN 10.3 µM | MCF7 24.7 µM | NCI-H226 15.7 µM | T47D 19.3 µM | NCI/ADR-RES 18.2 µM | UACC-257 60.7 µM | A498 31.8 µM | MDA-N 15.6 µM | BT-549 26.3 µM | COLO 205 29.4 µM | SK-MEL-28 18.8 µM

CCCCCCCCCCC(C(=O)O)C1(C(=O)O)CCC(=O)O1 (centres undefined)
inactive: SNB-19 > 100 µM | MOLT-4 > 100 µM | MDA-MB-231 > 100 µM | LOX IMVI > 100 µM | HOP-62 > 100 µM | SR > 100 µM | ACHN > 100 µM | MCF7 > 100 µM | NCI-H226 > 100 µM | T47D > 100 µM | SW-620 > 100 µM | NCI/ADR-RES > 100 µM | UACC-257 > 100 µM | MDA-N > 100 µM | BT-549 > 100 µM | COLO 205 > 100 µM | SK-MEL-28 > 100 µM

O=C1CCCCCCCCCCC1CN1CCCC1 (centres undefined)
inactive: SNB-19 > 100 µM | MOLT-4 39.4 µM | Malme-3M 31.6 µM | MDA-MB-231 47.9 µM | LOX IMVI 19.4 µM | HOP-62 17.1 µM | ACHN 54.8 µM | MCF7 20.5 µM | NCI-H226 15.4 µM | T47D 46.1 µM | SW-620 39.3 µM | NCI/ADR-RES 40 µM | UACC-257 20 µM | A498 19.4 µM | MDA-N 33 µM | BT-549 31.4 µM | COLO 205 20.1 µM | SK-MEL-28 22.1 µM

COC(=O)C1CCC(=S)N1C(=O)c1ccccc1 (centres undefined)
inactive: SNB-19 > 100 µM | MOLT-4 26.5 µM | Malme-3M > 100 µM | MDA-MB-231 > 100 µM | HOP-62 > 100 µM | ACHN > 100 µM | MCF7 > 100 µM | T47D > 100 µM | NCI/ADR-RES > 100 µM | UACC-257 > 100 µM | A498 > 100 µM | MDA-N > 100 µM | BT-549 > 100 µM | COLO 205 > 100 µM | SK-MEL-28 > 100 µM

COc1ccc(C(=O)C(Br)C(Br)C(=O)O)cc1 (centres undefined)
inactive: SNB-19 83.8 µM | MOLT-4 14 µM | Malme-3M 21.4 µM | MDA-MB-231 > 100 µM | LOX IMVI 21 µM | HOP-62 36.6 µM | ACHN 44.2 µM | MCF7 35.8 µM | NCI-H226 > 100 µM | T47D 33.1 µM | SW-620 23.3 µM | NCI/ADR-RES 30.1 µM | UACC-257 > 100 µM | A498 > 100 µM | MDA-N 38.1 µM | BT-549 26.5 µM | COLO 205 21.9 µM | SK-MEL-28 40.4 µM

CSc1ccc(/C=C2\N=C(c3ccccc3)N(/N=C/c3cc4cc(C)ccc4nc3Cl)C2=O)cc1
inactive: SNB-19 16.7 µM | MOLT-4 13.5 µM | MDA-MB-231 19.6 µM | LOX IMVI 18.6 µM | HOP-62 33.2 µM | SR 12.1 µM | ACHN 16.3 µM | MCF7 11.4 µM | T47D 22.9 µM | SW-620 27.4 µM | NCI/ADR-RES 19.1 µM | UACC-257 19.4 µM | A498 17.5 µM | MDA-N 14.4 µM | BT-549 22.8 µM | COLO 205 16.7 µM | SK-MEL-28 18.2 µM

Cc1ccc(-c2cc(-c3ccc(Cl)cc3)nc(/N=C3\C(=O)N(CN4CCCCC4)c4ccc(Cl)cc43)n2)cc1
inactive: SNB-19 11.2 µM | MOLT-4 11.7 µM | Malme-3M 84.3 µM | MDA-MB-231 36.2 µM | LOX IMVI 23.3 µM | HOP-62 26.3 µM | ACHN 29.6 µM | MCF7 21.1 µM | NCI-H226 39.4 µM | T47D 29.9 µM | SW-620 24.3 µM | NCI/ADR-RES 22.1 µM | UACC-257 22.9 µM | A498 18.8 µM | MDA-N 21.3 µM | BT-549 22.4 µM | COLO 205 25.2 µM | SK-MEL-28 64.1 µM

Cc1cc(S(=O)(=O)N/C(=N/N)NCCc2ccccc2)c(S)cc1Cl
inactive: SNB-19 18.1 µM | MOLT-4 17.7 µM | Malme-3M 22 µM | MDA-MB-231 29.6 µM | LOX IMVI 29.6 µM | HOP-62 > 10 µM | SR 29.9 µM | MCF7 32.4 µM | NCI-H226 25.6 µM | T47D 18.1 µM | SW-620 24 µM | NCI/ADR-RES 22.9 µM | UACC-257 44.4 µM | MDA-N > 10 µM | BT-549 15.4 µM | COLO 205 49.3 µM | SK-MEL-28 20.7 µM

Cc1nc2c(c(N3CCN(C)CC3)n1)Cc1ccccc1-2
inactive: SNB-19 24.9 µM | MOLT-4 > 10 µM | Malme-3M 40.8 µM | MDA-MB-231 37.8 µM | ACHN 34.2 µM | MCF7 70.3 µM | NCI-H226 45.8 µM | T47D > 100 µM | SW-620 31 µM | NCI/ADR-RES 49.5 µM | UACC-257 57 µM | MDA-N 58.5 µM | BT-549 24.3 µM | COLO 205 37.3 µM

O=[N+]([O-])c1ccc(N2N=C(c3c(O)ccc4ccccc34)CC2c2ccc(Cl)cc2)c([N+](=O)[O-])c1 (centres undefined)
inactive: MOLT-4 10.1 µM | Malme-3M 15.2 µM | MDA-MB-231 23.8 µM | HOP-62 24.4 µM | SR 6.97 µM | ACHN 27.4 µM | MCF7 26.4 µM | NCI-H226 20.9 µM | T47D 32.6 µM | SW-620 25.3 µM | NCI/ADR-RES 16.4 µM | UACC-257 37.1 µM | A498 22.6 µM | MDA-N 33.1 µM | BT-549 32.5 µM | COLO 205 16.1 µM | SK-MEL-28 46.9 µM

From ChEMBL document CHEMBL1201862, “PubChem BioAssay data set” (2004)
